Measurements as given in patent US20230241226A1, “COMPOUNDS FOR TARGETED DEGRADATION OF CARRIER PROTEINS AND USES THEREOF” (CeMM - Forschungszentrum für Molekulare Medizin GmbH, priority 2019, published 2023).

How the values were obtained:
Type in all cases: cell-based
dTAG-HA SLC38A1 = biological target: T1, dTAG-HA SLC38A1 (Homo sapiens, UniProt Q96SW2+Q9H2H9); test: Targeted degradation of dTAG-tagged SLC38A1 (western blot)
T1 construct: expressed in transfected cells
Experimental: (A) HAP1 cells expressing dTAG-HA SLC38A9, 38A2, or 38A1 were treated with 0.5 µM dTAG13 for 16, 24 or 48 hours.
SLC1A5, SLC2A1, SLC2A3, SLC16A1, SLC38A1, SLC38A2 were obtained as gateway-compatible pENTR/pDONR vectors from the Harvard PlasmID Repository. SLC39A7 was obtained from Dharmacon, GE Healthcare. The following vectors were synthesized by Genescript: SLC4A4, SLC7A3, SLC38A9, SLC25A1, SLC9A1, SLC9A2, SLC9A3, SLC9A4, SLC9A5, SLC9A6, SLC9A7, SLC9A8, and SLC9B2. SLC30A9, SLC33A1, SLC35B2, SLC25A26, and MTCH2 were a gift from the RESOLUTE consortium. cDNAs were transferred into gateway-compatible lentiviral expression vectors: pLX305 dTAG vectors (Addgene #91797/8) or pRRL Strep-HA (described previously43, EF1a promotor driven expression) using LR recombination (ThermoFisher Scientific). […]
(§1) For immunoblotting, whole cell extracts were prepared using RIPA lysis buffer (25 mM Tris/HCl pH 7.6, 150 mM NaCl, 1% NP-40, 1% sodium deoxycholate, 0.1% SDS, EDTA-free protease inhibitor (Roche) and phosphatase inhibitors 2+3 (Sigma- Aldrich)). […] Protein extracts were quantified and normalized using the BCA assay (Thermo Scientific). […]
SLCs were ectopically expressed as fusions to a mutated FKBP domain, also known as the dTAG system. […] Each of the tested SLCs was stably expressed in HAP1 cells, and subcellular localization was assessed by immunofluorescence microscopy (FIG. 1B). […]

dTAG-HA SLC30A9 = biological target: T2, dTAG-HA SLC30A9 (Homo sapiens, UniProt Q6PML9+Q96SW2); test: Targeted degradation of dTAG-tagged SLC30A9 (western blot); conditions: HAP1, 0.5 µM
T2 construct: expressed in transfected cells
Experimental: (§2) (C)HAP1 cells expressing dTAG-HA SLC1A5, 2A3, 30A9, 35B2, MTCH2, and 33A1 were treated for 24 hours with 0.5 µM of dTAG7 or dTAG13, as indicated. HAP1 cells expressing dTAG-HA SLC2A1 and 16A1 were treated for 24 hrs with 0.5 µM of dTAG7. HAP1 cell lines expressing dTAG-HA SLC39A7, dTAG-HA SLC4A4, and SLC7A3-dTAG-HA were treated for 48 hrs with 0.5 µM of dTAG13.
(§3) SLC1A5, SLC2A1, SLC2A3, SLC16A1, SLC38A1, SLC38A2 were obtained as gateway-compatible pENTR/pDONR vectors from the Harvard PlasmID Repository. SLC39A7 was obtained from Dharmacon, GE Healthcare. The following vectors were synthesized by Genescript: SLC4A4, SLC7A3, SLC38A9, SLC25A1, SLC9A1, SLC9A2, SLC9A3, SLC9A4, SLC9A5, SLC9A6, SLC9A7, SLC9A8, and SLC9B2. […]
as §1
(§4) SLCs were ectopically expressed as fusions to a mutated FKBP domain, also known as the dTAG system. […]

dTAG-HA SLC35B2 = biological target: T3, dTAG-HA SLC35B2 (Homo sapiens, UniProt Q8TB61+Q96SW2); test: Targeted degradation of dTAG-tagged SLC35B2 (western blot); conditions: HAP1, 0.5 µM, 24, 48 or 72 hours
T3 construct: expressed in transfected cells
Experimental: as §2, §3, §1, §4

dTAG-HA SLC16A1 = biological target: T4, dTAG-HA SLC16A1 (Homo sapiens, UniProt P53985+Q96SW2); test: Targeted degradation of dTAG-tagged SLC16A1 (western blot); conditions: HAP1, 0.5 µM, 24, 48 or 72 hours
T4 construct: expressed in transfected cells
Experimental: as §2, §3, §1, §4

T1 sequence (Q16531 whole entry): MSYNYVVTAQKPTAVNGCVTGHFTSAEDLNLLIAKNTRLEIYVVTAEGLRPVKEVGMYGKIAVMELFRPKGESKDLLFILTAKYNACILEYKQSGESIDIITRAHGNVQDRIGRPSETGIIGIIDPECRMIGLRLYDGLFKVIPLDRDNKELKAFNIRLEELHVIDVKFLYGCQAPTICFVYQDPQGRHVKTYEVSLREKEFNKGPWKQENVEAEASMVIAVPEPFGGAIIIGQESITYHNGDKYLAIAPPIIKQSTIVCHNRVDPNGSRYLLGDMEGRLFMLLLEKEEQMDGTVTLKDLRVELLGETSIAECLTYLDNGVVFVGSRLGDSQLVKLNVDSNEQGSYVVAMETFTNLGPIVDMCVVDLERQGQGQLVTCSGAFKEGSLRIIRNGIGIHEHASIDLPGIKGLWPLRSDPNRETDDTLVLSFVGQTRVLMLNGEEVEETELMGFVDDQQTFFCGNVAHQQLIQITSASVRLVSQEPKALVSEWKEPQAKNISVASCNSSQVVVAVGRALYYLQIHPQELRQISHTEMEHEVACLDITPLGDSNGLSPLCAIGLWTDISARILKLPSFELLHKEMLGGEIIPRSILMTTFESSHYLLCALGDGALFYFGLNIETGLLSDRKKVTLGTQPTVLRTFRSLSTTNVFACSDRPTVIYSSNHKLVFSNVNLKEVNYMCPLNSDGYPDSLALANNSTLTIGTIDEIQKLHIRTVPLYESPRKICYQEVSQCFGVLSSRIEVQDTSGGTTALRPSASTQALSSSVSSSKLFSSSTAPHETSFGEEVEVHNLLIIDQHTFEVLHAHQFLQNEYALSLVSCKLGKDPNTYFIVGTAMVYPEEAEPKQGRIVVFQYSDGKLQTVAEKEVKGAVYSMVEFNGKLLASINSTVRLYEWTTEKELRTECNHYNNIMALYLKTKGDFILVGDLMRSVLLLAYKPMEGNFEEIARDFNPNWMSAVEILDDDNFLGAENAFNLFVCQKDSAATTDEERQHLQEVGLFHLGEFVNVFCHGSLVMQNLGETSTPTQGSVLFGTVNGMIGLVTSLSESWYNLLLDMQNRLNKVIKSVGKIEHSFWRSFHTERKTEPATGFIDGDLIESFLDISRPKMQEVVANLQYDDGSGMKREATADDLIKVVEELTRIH
T1 sequence (Q9H2H9 other isoform, or with tags, fused parts or gaps): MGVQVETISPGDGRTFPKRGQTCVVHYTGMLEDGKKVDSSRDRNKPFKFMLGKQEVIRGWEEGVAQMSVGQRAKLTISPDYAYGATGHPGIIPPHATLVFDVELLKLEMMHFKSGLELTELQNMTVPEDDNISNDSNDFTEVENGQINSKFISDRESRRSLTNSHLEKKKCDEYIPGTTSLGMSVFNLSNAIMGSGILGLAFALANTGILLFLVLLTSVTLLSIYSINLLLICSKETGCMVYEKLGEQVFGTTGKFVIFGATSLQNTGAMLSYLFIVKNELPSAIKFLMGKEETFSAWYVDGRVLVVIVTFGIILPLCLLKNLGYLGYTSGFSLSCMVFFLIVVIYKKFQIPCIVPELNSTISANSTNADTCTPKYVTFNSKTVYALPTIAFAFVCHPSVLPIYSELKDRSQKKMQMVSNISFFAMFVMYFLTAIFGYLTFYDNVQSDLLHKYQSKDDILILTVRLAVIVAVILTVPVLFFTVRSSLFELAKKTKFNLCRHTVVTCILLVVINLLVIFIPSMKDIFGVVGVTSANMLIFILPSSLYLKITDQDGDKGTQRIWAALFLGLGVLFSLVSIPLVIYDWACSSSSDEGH
T1 sequence (Q96SW2 whole entry): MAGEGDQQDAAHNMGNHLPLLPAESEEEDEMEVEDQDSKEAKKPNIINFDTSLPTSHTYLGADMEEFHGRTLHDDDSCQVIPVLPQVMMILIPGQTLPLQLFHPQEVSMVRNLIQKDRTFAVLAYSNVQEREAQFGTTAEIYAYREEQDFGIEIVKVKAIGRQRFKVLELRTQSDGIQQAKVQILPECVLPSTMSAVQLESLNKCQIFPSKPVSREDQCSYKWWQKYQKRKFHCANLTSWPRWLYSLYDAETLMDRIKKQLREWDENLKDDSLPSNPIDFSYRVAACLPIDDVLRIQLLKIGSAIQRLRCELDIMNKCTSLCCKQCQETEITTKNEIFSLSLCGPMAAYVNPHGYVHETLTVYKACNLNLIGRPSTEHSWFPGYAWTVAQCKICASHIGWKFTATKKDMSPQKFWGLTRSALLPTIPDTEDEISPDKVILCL
T3 sequence (Q8TB61 with tags, fused parts or gaps): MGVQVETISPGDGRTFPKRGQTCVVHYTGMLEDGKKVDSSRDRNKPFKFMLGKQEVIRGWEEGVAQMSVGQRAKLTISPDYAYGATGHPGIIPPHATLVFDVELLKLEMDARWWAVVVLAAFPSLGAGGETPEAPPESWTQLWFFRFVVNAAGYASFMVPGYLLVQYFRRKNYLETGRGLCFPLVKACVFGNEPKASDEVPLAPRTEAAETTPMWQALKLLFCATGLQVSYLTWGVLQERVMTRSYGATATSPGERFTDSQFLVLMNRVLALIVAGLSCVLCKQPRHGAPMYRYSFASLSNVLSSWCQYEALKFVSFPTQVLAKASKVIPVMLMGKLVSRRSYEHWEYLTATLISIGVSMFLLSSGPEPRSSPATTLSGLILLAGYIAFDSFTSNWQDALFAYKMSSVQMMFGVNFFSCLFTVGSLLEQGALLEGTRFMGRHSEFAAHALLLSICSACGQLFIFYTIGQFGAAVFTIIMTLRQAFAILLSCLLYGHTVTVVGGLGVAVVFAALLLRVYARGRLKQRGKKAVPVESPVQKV
T3 sequence (Q96SW2 whole entry): as the sequence (Q96SW2 whole entry) above
T3 sequence (Q16531 whole entry partner): as the sequence (Q16531 whole entry) above
T2 sequence (Q6PML9 with tags, fused parts or gaps): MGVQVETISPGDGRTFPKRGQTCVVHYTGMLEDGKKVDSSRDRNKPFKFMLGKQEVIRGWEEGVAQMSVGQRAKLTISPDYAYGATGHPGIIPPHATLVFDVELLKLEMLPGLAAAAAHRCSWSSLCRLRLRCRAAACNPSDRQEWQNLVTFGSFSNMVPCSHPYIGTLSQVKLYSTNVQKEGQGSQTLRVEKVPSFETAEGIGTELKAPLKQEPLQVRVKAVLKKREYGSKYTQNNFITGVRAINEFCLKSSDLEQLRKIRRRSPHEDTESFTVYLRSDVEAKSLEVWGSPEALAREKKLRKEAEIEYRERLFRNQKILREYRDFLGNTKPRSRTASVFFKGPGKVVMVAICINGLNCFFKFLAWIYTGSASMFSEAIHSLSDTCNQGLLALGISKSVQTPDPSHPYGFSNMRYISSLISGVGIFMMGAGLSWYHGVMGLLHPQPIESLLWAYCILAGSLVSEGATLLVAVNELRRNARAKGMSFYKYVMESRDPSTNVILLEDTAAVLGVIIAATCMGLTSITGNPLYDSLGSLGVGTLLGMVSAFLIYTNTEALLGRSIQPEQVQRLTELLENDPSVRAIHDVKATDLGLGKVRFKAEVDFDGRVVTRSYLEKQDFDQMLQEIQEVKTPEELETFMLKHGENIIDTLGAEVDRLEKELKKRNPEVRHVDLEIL
T2 sequence (Q96SW2 whole entry): as the sequence (Q96SW2 whole entry) above
T2 sequence (Q16531 whole entry partner): as the sequence (Q16531 whole entry) above
T4 sequence (P53985 with tags, fused parts or gaps): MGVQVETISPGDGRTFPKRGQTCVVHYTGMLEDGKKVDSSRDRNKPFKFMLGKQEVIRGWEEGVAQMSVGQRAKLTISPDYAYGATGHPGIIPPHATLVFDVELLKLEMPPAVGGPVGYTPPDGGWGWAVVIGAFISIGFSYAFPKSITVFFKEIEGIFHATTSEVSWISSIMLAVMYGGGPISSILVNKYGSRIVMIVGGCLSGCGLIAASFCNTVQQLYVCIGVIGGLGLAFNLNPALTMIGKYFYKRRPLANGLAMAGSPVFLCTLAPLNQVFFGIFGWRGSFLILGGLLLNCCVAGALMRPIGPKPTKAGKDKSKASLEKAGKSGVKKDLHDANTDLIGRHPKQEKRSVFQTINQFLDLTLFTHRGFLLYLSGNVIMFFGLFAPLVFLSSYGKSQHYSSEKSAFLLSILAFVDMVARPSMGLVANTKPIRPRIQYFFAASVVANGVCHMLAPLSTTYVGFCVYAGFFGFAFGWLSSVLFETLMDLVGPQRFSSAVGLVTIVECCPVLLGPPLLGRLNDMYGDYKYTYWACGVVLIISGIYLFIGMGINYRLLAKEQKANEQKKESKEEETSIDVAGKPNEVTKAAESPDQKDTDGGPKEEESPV
T4 sequence (Q96SW2 whole entry): as the sequence (Q96SW2 whole entry) above
T4 sequence (Q16531 whole entry partner): as the sequence (Q16531 whole entry) above

SMILES	degradation of the target SLC (dTAG-HA SLC38A1; HAP1, dTAG-HA SLC38A1, 0.5 µM, 16, 24 or 48 hours)	degradation of dTAG-HA SLC38A1 (antibodies against HA-tag and total protein) (dTAG-HA SLC38A1; HAP1 or 293T, PNGase de-glycosylated extracts)	initiation of degradation (time course) (dTAG-HA SLC30A9)	reversibility of degradation of the target SLC (dTAG-HA SLC35B2)	reversibility of degradation of the target SLC (dTAG-HA SLC16A1)
CC[C@H](C(=O)N1CCCC[C@H]1C(=O)O[C@H](CCc1ccc(OC)c(OC)c1)c1ccccc1OCC(=O)NCCCCCCOc1cccc2c1C(=O)N(C1CCC(=O)NC1=O)C2=O)c1cc(OC)c(OC)c(OC)c1 (some centres unmarked) [dTAG13]	Near-complete degradation	completely degraded	–	–	–
CC[C@H](C(=O)N1CCCC[C@H]1C(=O)O[C@H](CCc1ccc(OC)c(OC)c1)c1ccccc1OCC(=O)NCCCOCCOCCOCCCNC(=O)COc1cccc2c1C(=O)N(C1CCC(=O)NC1=O)C2=O)c1cc(OC)c(OC)c(OC)c1 (some centres unmarked) [dTAG7]	–	–	≤ 6 h	reversible degradation	reversible degradation
